From ChEMBL document CHEMBL2074423, “Inhibition of P-glycoprotein activity and reversal of cancer multidrug resistance by Momordica charantia extract” (Cancer Chemother Pharmacol, 2004)

Target: ATP-dependent translocase ABCB1 (Homo sapiens, UniProt P08183)
Assay: TP_TRANSPORTER: drug resistance (vinblastine) in KB-V1 cells
Type: functional, cell-based

Sequence of ATP-dependent translocase ABCB1 (P08183 whole entry): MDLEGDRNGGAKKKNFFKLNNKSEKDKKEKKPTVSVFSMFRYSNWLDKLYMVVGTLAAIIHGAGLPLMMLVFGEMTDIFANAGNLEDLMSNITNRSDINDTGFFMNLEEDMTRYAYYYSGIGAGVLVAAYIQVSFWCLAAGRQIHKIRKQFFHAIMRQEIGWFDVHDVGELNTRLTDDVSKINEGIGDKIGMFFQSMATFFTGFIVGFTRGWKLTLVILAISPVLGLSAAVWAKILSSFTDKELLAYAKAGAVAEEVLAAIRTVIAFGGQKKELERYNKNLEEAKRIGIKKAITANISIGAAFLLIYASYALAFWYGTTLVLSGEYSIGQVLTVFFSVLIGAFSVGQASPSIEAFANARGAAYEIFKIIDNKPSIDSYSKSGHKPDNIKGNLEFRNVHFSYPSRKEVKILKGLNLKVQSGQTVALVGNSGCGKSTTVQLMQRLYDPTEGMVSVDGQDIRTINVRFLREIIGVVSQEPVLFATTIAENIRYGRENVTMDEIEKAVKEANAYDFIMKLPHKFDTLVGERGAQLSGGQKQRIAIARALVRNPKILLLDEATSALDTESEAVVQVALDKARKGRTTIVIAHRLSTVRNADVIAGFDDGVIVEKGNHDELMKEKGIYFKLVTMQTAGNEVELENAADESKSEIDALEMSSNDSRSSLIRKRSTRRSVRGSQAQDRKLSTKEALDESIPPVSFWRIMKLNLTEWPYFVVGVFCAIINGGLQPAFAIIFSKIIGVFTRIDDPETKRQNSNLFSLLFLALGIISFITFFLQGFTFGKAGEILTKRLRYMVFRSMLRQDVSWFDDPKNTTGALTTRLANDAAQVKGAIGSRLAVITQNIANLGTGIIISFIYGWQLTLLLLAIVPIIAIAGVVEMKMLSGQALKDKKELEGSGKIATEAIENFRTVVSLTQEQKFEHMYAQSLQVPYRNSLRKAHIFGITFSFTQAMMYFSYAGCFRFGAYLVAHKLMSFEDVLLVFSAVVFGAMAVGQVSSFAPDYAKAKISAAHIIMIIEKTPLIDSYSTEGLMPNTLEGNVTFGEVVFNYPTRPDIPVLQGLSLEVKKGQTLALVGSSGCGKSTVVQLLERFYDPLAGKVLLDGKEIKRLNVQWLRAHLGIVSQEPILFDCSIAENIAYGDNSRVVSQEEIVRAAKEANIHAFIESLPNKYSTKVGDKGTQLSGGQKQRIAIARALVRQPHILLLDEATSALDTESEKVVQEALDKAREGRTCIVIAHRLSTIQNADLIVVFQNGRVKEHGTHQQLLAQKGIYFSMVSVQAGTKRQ

Activity: inhibitor [+]
Substance: BITTER MELON LEAF EXTRACT
